From paper PMC8812735, “Discovery of triterpenoids as potent dual inhibitors of pancreatic lipase and human carboxylesterase 1” (Journal of Enzyme Inhibition and Medicinal Chemistry, 2022) come the findings set out here.

The target in data set [1] is T1, Butyrylcholinesterase (BuChE) (Homo sapiens, UniProt P06276).
T1 construct: from tissue; host or cells: human serum
Kind of data set: Inhibition of BuChE-mediated BTCH hydrolysis. In kind it is biochemical. The protocol: To assay the inhibitory effects of triterpenoids on Butyrylcholinesterase (BuChE), butyrylthiocholine (BTCH) was used as a substrate for BuChE, The total volume of the system was 100 µL. Including 2 µL DMSO/inhibitor, 2 µL human serum, 84 µL buffered PBS (pH 7.4, 0.1 M), 10 µL substrate iodised butyrylthiocholine (0.3 mM, final concentration) and 2 µL developer 5–5′-dithiobis(2-nitrobenzoic acid) (DTNB) (1 mM, final concentration). The assay protocol of […] was depicted previously. All measurements were performed in triplicates.

The subject of data set [2] is 3T3-L1 cells. Kind of data set: Cytotoxicity assay (CCK-8) in 3T3-L1 cells. In kind it is cell-based. To be noted: CCK-8, 48 h, 0–100 µM. The protocol:
The effect of compounds 39 and 41 on cell viability of the 3T3-L1cells was measured using Cell Counting Kit-8 (Dalian Meilun Biotechnology Co., Ltd., Dalian, China). Briefly, 3T3-L1 cells (5 × 10^4/mL, 100 µL) were seeded in the 96-well plate, After 24 h incubation, then the cells were treated with different concentrations of compounds 39 and 41 (0–100 µM) for another 48 h. Then, CCK-8 (10%, v/v, 100 µL) was added to each well and incubated at 37 °C for additional 2 h. The absorbance was determined by microplate reader at 450 nm. The percentage of cell viability was calculated towards control. Each condition included replicate wells with at least four independent repeats.

The test system of data set [3] is 3T3-L1 cells. Kind of data set: Lipid droplet formation in differentiating 3T3-L1 cells (Oil red O staining). In kind it is cell-based, mouse. To be noted: high concentration (5 µM). The protocol: The cells were planted in a well plate and cultured for 48 h after the cells were 100% confluent. Mix inhibitors compounds 39 and 41 with solution I (10 µg/mL insulin in DMEM/F: 12 medium, 0.5 mM 3-isobutyl-1-methylxanthine and […]) to different concentrations, Then added to different wells and incubated for 48 h, then the inhibitor was mixed with solution II (5 µg/mL insulin in DMEM/F: 12 medium), then added to the wells of the same concentration and incubated for 48 h. Then, the medium in the well was replaced with DMEM/F:12 medium with different concentrations of inhibitors, and the culture was continued for 48 h.
The lipid droplets of 3T3-L1 cells were stained with Oil Red O stain kit (Beijing solebo Technology Co., Ltd., Beijing, China) after cultured for 48 h. In short, 3T3-L1 cells were washed with PBS 2 times and fixed with ORO fixative for 20–30 min, and then washed again with deionised water for 3 times. Then, 3T3-L1 cells were washed with 60% isopropanol for 5 min, immersed in oil red O solution for 10–20 min, and washed with deionised water for 3–5 times. Mayer's haematoxylin staining solution was added, the nucleus was stained for 1–2 min, then washed for 3–5 times, and Oro buffer solution was added for 1 min. Finally, distilled water was added to cover the cells. The stained lipid droplets were observed under inverted microscope (Lecai DMI8).

The target of data set [4] is T2, hCES2A (Homo sapiens, UniProt O00748).
T2 sequence (O00748 27-559): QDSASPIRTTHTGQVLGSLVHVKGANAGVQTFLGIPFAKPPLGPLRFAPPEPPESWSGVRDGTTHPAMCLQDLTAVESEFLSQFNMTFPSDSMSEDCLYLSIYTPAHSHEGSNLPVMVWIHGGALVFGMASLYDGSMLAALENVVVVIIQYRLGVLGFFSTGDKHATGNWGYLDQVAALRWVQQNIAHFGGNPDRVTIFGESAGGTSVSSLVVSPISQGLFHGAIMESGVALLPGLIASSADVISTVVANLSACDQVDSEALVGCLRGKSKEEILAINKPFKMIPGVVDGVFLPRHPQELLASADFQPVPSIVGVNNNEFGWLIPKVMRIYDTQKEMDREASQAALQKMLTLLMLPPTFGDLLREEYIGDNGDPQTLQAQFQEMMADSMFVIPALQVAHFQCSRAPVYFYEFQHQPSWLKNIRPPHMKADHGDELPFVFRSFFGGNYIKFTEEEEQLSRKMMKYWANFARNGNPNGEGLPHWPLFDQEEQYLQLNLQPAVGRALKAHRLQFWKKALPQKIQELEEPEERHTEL
Kind of data set: Inhibition of hCES2A-mediated FD hydrolysis. In kind it is biochemical. To be noted: FD substrate, mean ± SD (n = 3); read-out: IC50 (µM) hCES2A. The text has this: […] (FD) was used as the hCES2A specific probe substrate to assay the inhibitory effect of natural triterpenoids on hCES2A. The entire detailed operation process refers to the previously reported method, and finally the FD mixture was put into the multi-mode microplate reader for analysis and detection.

Each structure is given as a SMILES string.

T1 sequence (P06276 29-602): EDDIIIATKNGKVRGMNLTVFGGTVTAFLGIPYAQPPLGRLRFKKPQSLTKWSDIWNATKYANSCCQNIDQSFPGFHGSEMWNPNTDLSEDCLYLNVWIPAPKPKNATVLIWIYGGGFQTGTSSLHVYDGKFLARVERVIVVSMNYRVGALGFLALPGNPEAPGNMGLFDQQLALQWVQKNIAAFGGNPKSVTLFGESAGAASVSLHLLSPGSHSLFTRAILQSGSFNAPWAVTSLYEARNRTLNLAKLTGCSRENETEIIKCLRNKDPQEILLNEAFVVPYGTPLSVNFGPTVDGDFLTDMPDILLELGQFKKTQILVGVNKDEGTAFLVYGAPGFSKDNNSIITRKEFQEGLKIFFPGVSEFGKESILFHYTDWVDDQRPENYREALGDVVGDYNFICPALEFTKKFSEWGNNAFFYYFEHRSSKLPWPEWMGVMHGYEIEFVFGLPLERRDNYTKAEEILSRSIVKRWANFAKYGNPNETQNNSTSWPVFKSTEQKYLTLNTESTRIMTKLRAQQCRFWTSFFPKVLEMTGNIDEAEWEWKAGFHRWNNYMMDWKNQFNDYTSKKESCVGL

The term IC50 denotes the point on the concentration scale where inhibition reaches its midpoint. For `CC1(C)CCC2(C(=O)O)CCC3(C)C(=CCC4C5(C)C=C(O)C(=O)C(C)(C)C5CCC43C)C2C1` (centres unmarked) [Compound 39], the IC50 in data set [1] is over 100 µM; in data set [4], 6.02 ± 0.75 µM. Further, the “concentration below which almost non-toxic to 3T3-L1 (cell viability)” value in data set [2] is reported as “below 20 µM”. The lipid droplet formation result in data set [3] is recorded as “almost no lipid droplets were formed”.

With `CC(=O)OC1CCC2(C)C(CCC3(C)C2CC=C2C4C(C)C(C)CCC4(C(=O)O)CCC23C)C1(C)C` (centres unmarked) [Compound 41], the IC50 in data set [1] was over 100 µM; in data set [4], 5.02 ± 0.88 µM. In data set [2], the “concentration below which almost non-toxic to 3T3-L1 (cell viability)” value is recorded as under 10 µM. Further, the lipid droplet formation result in data set [3] is “almost no lipid droplets were formed”.
